In test [1] the target is ROCK1 (Homo sapiens, UniProt Q13464). Briefly: ROCK1 inhibition, ADP-Glo Kinase Assay. For orientation: ADP-Glo turns the ADP formed in a reaction into a luminescent signal.
For test [2], the target named is T1, GRK1 (Homo sapiens, UniProt Q15835).
T1 sequence (Q15835 1-563): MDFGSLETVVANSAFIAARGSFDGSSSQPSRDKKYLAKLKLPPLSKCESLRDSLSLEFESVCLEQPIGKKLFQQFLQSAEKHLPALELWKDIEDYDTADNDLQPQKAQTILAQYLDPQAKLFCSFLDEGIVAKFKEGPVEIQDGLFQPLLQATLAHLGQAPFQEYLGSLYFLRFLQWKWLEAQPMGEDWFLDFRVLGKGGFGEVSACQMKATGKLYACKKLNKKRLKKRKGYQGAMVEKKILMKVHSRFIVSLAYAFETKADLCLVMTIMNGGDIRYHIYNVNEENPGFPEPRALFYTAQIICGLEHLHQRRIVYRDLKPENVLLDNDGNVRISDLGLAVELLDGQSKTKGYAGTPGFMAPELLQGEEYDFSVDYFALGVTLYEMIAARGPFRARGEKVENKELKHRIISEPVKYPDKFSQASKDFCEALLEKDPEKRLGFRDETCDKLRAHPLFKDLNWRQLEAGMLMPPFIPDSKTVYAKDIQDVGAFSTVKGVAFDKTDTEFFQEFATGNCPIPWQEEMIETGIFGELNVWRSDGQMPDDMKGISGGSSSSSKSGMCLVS
Briefly: GRK1 kinase inhibition.

Test [3] has as its target PKA (Homo sapiens, UniProt P17612). Briefly: PKA inhibition, ADP-Glo Kinase Assay.
The target in test [4] is GRK5 (Homo sapiens, UniProt P34947). Put plainly: GRK5 kinase inhibition.
Test [5] concerns cardiomyocytes isolated from adult mice. Briefly: Contractility in mouse cardiomyocytes. Particulars: compared with lead 2; isoproterenol stimulation.

Sequence of ROCK1 (Q13464 whole entry, species assumed): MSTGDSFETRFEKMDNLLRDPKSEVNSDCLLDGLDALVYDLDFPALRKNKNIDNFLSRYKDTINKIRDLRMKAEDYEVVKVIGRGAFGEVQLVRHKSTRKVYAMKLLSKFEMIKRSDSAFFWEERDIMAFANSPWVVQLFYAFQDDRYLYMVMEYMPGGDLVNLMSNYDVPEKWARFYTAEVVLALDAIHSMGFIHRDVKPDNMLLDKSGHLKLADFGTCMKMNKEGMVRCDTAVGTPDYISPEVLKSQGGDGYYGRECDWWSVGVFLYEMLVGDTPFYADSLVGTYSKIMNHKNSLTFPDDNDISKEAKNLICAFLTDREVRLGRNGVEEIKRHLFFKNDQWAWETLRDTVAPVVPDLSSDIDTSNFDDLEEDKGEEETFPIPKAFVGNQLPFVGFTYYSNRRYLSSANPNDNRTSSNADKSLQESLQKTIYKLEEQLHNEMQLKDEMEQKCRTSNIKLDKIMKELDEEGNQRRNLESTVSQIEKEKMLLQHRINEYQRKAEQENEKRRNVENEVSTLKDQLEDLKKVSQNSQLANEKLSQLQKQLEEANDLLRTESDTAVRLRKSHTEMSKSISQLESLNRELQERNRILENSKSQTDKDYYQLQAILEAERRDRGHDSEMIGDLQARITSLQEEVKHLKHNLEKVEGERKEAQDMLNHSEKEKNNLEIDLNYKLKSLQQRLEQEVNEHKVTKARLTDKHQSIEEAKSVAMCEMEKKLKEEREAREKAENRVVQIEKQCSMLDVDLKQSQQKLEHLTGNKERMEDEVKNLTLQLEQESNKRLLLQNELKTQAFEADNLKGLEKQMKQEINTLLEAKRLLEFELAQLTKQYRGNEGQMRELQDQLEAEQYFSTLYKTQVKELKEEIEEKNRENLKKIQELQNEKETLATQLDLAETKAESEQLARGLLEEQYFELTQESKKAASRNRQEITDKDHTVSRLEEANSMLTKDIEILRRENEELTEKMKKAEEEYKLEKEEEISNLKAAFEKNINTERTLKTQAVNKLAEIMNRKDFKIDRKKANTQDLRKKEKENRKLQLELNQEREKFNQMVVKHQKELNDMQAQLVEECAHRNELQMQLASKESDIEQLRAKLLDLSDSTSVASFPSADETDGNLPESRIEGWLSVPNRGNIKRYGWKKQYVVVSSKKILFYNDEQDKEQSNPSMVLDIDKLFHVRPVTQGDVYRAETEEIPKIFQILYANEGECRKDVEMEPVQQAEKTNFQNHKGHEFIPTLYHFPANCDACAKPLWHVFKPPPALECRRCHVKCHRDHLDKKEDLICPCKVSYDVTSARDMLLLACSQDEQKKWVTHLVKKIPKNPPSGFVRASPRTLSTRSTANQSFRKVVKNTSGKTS
Sequence of GRK5 (P34947 whole entry, species assumed): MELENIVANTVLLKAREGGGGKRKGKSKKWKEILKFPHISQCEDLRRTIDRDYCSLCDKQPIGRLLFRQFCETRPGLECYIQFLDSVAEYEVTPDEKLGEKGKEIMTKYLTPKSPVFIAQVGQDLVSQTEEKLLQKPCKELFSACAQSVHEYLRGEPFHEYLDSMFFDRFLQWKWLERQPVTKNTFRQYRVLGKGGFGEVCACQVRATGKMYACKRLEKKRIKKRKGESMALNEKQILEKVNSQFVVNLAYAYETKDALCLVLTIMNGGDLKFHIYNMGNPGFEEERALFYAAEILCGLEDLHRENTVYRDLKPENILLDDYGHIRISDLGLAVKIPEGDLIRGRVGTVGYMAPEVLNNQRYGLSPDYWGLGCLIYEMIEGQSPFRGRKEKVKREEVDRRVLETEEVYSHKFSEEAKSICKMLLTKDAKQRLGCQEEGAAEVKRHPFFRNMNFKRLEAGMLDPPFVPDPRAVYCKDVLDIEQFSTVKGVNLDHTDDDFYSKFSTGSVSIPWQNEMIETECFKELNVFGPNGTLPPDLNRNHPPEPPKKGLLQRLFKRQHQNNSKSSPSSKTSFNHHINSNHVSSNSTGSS

Usually IC50 stands for the concentration needed to halve the response being measured. `CC1=C(C(=O)Nc2ccc3[nH]ncc3c2)C(c2ccc(F)c(C(=O)NCc3nccc4ccccc34)c2)NC(=O)N1` (centres unmarked) [Compound 12k, 4-(4-Fluoro-3-((isoquinolin-1-ylmethyl)carbamoyl)phenyl)-N-(1H-indazol-5-yl)-6-methyl-2-oxo-1,2,3,4-tetrahydropyrimidine-5-carboxamide]: the IC50 in test [1] is around 0.01 µM. The “increase in GRK1 potency in comparison to 12h” value in test [2] is listed as 50 fold.
On to `CC1=C(C(=O)Nc2ccc3[nH]ncc3c2)C(c2ccc(F)c(C(=O)NCc3c(Cl)cccc3Cl)c2)NC(=O)N1` (centres unmarked) [Compound 12l, 4-(3-((2,6-Dichlorobenzyl)carbamoyl)-4-fluorophenyl)-N-(1H-indazol-5-yl)-6-methyl-2-oxo-1,2,3,4-tetrahydropyrimidine-5-carboxamide], for which the IC50 in test [3] was above 100 µM. Also, the “selectivity for GRK2 over GRK1” value in test [2] is listed as “over 770 fold”. For the same compound, the “selectivity for GRK2 over GRK5” value in test [4] is given as “over 770 fold”.
Compound `COc1cccc(OC)c1CNC(=O)c1cc(C2NC(=O)NC(C)=C2C(=O)Nc2ccc3[nH]ncc3c2)ccc1F` (centres unmarked) [Compound 12n, 4-(3-((2,6-Dimethoxybenzyl)carbamoyl)-4-fluorophenyl)-N-(1H-indazol-5-yl)-6-methyl-2-oxo-1,2,3,4-tetrahydropyrimidine-5-carboxamide] showed an IC50 in test [3] above 100 µM. In test [1], the “decrease in potency at ROCK1 compared to 12e” value is listed as “over 175 fold” and the “inhibition of ROCK1” value is given as “no detectable inhibition”. The “decrease in potency at GRK1 compared to 12e” value in test [2] amounted to 6 fold. Besides, the “decrease in potency at GRK5 compared to 12e” value in test [4] is 43 fold. Besides, the “potency at stimulating cardiomyocyte contraction” value in test [5] is recorded as “equivalent to or slightly more potent than the lead 2”.

Source of the values: article PMC4890168 (Journal of medicinal chemistry, 2016).
